According to PMC6899342 (PeerJ, 2019):
Where no end group is shown, it is not given here.

Target: T1, PCV2 Cap protein (Porcine circovirus 2, UniProt O56129)
T1 construct: made in house; host or cells: E. coli BL21 (pET28a-Cap)
Assay: biochemical
Assay type: binding, porcine circovirus type II
Conditions: for kon: pH 7.4, read-out: ka
Procedure: The equilibrium binding constant (KD) of peptides was determined using an Open SPR instrument (Nicoya, Canada). First, purified Cap protein was covalently immobilized on a carboxyl Au colloidal nanoparticles chip. […] Then, all peptides were respectively dissolved in PBS at predetermined concentrations and injected to detect the resonance signal changes. In each cycle, 300 µL of peptide solution was injected into the flow cell of the Cap chip for 5 min. Finally, the data were assessed to determine the association constant (ka, 1/Ms), the dissociation constant (kd, 1/s), the equilibrium binding constant (KD, M), and KD = kd/ka via Trace Drawer 1.7 (Nicoya, Canada).
All the steps were performed according to manufacturer’s instructions. First, the activation of carboxyl chip: the chip is activated by the EDC/NHS reagent in the amine coupling kit. […] The last step is to block the chip with blocking buffer. In every step, The 300 μL sample was flowed through the chip for 5 min at a constant flow rate of 20 μL/min.
Dissociation constant Kd represents the ratio of AB (ie, AB) dissociated in unit time to the initial AB before dissociation, which represents the speed of the dissociation reaction.Equilibrium dissociation constant KD =kd/ka, KD unit is M (mol/L)
1:1 binding interaction model represents the binding mode of ligand and target according to 1:1. The1:1 binding interaction model is a differential equation:
dY/dt = (k a * c - k d )* Y

T1 sequence (O56129 whole entry): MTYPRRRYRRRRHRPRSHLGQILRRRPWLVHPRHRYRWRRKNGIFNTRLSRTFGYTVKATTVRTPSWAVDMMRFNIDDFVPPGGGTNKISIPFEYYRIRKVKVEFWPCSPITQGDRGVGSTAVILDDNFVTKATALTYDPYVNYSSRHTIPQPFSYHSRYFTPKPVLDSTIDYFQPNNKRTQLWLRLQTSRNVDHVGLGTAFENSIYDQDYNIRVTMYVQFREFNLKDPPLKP

## KWWQSWEW [Peptide L13]
  Kd: 9.97 µM
  kon: 335 M⁻¹ s⁻¹

## RKHKRWK [Peptide L7]
  Kd: 1.06 µM
  kon: 856 M⁻¹ s⁻¹

## WQGMMKEE [Peptide L4]
  Kd: 1.23 µM
  kon: 1920 M⁻¹ s⁻¹

## WQSWEWTG [Peptide L9]
  Kd: 6.71 µM
  kon: 855 M⁻¹ s⁻¹
